Laboratory results as given in patent US8637681B2, “Pyrrolyl substituted dihydroindol-2-one derivatives, preparation methods and uses thereof” (Qilu Pharmaceutical Co., Ltd., priority 2010, dated 2014).
Where “and” joins values, the source holds several entries; their conditions need not be identical. Equal values may be shown once.

Columns and labels:
[1] = tested on: human colon cancer HT 29 transplanted tumor; experiment: Nude mice transplanted tumor test; format: in vivo, female Balb/cA nude mice; set-up: key to d21 Vave ± SD (average tumor volume): tumor volume TV = ½×a×b² (a, b = major, minor diameter), in mm³; settings: for Dead animal number: dead/total animals; for inhibition in vivo at 80 mg/kg: Mus musculus, HT-29, po, 504 h, (1−T/C)×100%, read-out: Tumor inhibition rate d21 (%); for inhibition in vivo at 80 mg/kg / d21 Wave ± SD (average bodyweight of nude mice) / d21 Vave ± SD (average tumor volume) / d21 RTV ± SD (relative tumor volume): d21; for d0 Wave ± SD (average bodyweight of nude mice): d0, at grouping before administration (baseline); for d21 Vave ± SD (average tumor volume): HT 29 in nude mice; for d21 RTV ± SD (relative tumor volume): RTV=Vt/V0
Method: The nude mice transplanted tumor test used female Balb/cA nude mice, and tumor strains were human colon cancer HT 29 strains.
Under sterile condition, eugonic tumor tissues stage were cut into pieces of about 1.5 mm^3, and inoculated at right axillary fossa of the nude mice. The transplanted tumor diameter was measured by vernier caliper, and the animals were randomly grouped after the tumors grew to about 120 mm^3. The positive control group and the compounds group in a dosage of 80 mg/kg were administered intragastrically each day for consecutive 20 days. The negative control group was given equivalent amount of injection water containing 0.1% Tween 80. Tumor diameters and the bodyweight of mice were measured 2-3 times every week. The evaluation indexes observed in the test include relative tumor proliferation rate, bodyweight and general states. The formulation for calculating tumor volume (TV) is: TV=½×a×b^2, wherein a, b represent major diameter and minor diameter of tumor; Relative tumor volume (RTV) was calculated according the results of measurement by the following formula: RTV=Vt/V0, wherein V0 is tumor volume measured when dividing groups for administration, and Vt is tumor volume measured after each administration.

[2] = tested on: arterial ring angiogenesis in rats; experiment: Inhibitory actions on arterial ring angiogenesis in rats; format: cell-based; settings: Rattus norvegicus, area covered by micrangiums vs control well, read-out: Inhibitory rate (%); for inhibition at 0.2 µg/mL: 0.2 μg/ml; for inhibition at 1 µg/mL: 1 μg/ml; for inhibition at 5 µg/mL: 5 μg/ml
Method: This experiment was conducted by referring to the method described by R. F. Nicosia et al (Nicosia, R. F., et al. Am J Pathol., 1997, 151, 1379-1386). Rats were executed by cervical dislocation. The thoracic aorta was carefully separated, and placed in a container with physiological saline. The excess tissues were carefully cut off. The blood vessels were cut with a pair of ophthalmic scissors to form 1 mm thick vascular ring slices. To a pre-cooled 96-well cell culture plate, one separated vascular ring was placed in the center of each well. 70 μl of pre-molten Matrigel was carefully added to cover the vascular ring, which was incubated at 37° C. for 1 h so as to solidify it. […] The sample was placed in incubator for conventional culture, and each compound was tested at least in two repeated wells, and each test was repeated twice. […] The fresh culture medium was replaced every 3 days, and the drug was changed at the same time. The survival status of vascular rings was observed under microscope, and pictures were taken at the same time. Image Pro Plus software was used to calculate the area covered by micrangiums. The average inhibition rate was calculated by using the formula: inhibition rate (%)=(area of control well−area of drug well)/area of control well×100%.

[3] = Cytotoxicity test (SRB), Hela; format: cell-based; settings: human, Hela cervical cancer cells
Method: Cytotoxicity of the compounds of the present invention was tested with human non-small cell lung cancer cells A549, human cervical cancer Hela cells, human skin cancer cells A431. The test was performed by referring to the method described by Rusnak et al (Rusnak D. W., et al., Cell Prolif., 2007, 40, 580-94). […] Trypsin/ethylenediamine tetraacetic acid (EDTA) were used to harvest cells in cell culture bottle. The cells were added to a 96-well cell culture plate, 4000/well (0.1 ml medium), adhering wall overnight, 0.1 ml of the diluted solution of the compounds to be tested was added, the final concentration of DMSO was 0.25%. The cell culture plate was incubated at 37° C., 5% CO2 conditions for 72 h. […] The absorption at a wavelength of 540 nm was measured. The IC50 (μM) of the compound was calculated using Logit method.

[4] = tested on: three kinds of tumor cells (A549, Hela, A431); experiment: Cytotoxicity test, summary over the three tumor cell lines; format: cell-based, human; settings: compared with positive control Sunitinib
Method: (§1) Cytotoxicity of the compounds of the present invention was tested with human non-small cell lung cancer cells A549, human cervical cancer Hela cells, human skin cancer cells A431. The test was performed by referring to the method described by Rusnak et al (Rusnak D. W., et al., Cell Prolif., 2007, 40, 580-94).
(§2) In Dulbecco's Modified Eagle Medium (DMEM) comprising 10% fetal bovine serum, 2 mM glutamine and non-essential amino acids, cells were cultured at 37° C. in 5% CO2 cell incubator. Trypsin/ethylenediamine tetraacetic acid (EDTA) were used to harvest cells in cell culture bottle. The cells were added to a 96-well cell culture plate, 4000/well (0.1 ml medium), adhering wall overnight, 0.1 ml of the diluted solution of the compounds to be tested was added, the final concentration of DMSO was 0.25%. The cell culture plate was incubated at 37° C., 5% CO2 conditions for 72 h. The change of cellular morphology was observed under microscope, and then 50 μl of 50% (mass/volume) trichloroacetic acid (TCA) was added to each well to fix cells. The final concentration of TCA was 10%. It stood for 5 min, than was placed in 4° C. refrigerator for 1 h, the wells of the culture plate were washed with deionized water for 5 times to remove TCA, drained, dried in air until no wet trace was observed. 100 μl of 0.4% (mass/volume) SRB was added to each well, stood at room temperature for 10 min. The liquid in each well was discarded, and then the wells were washed with 1% acetic acid for 5 times, dried in air, extracted with 150 μl of 10 mM Tris base (trihydroxymethylaminomethane, pH 10.5). The absorption at a wavelength of 540 nm was measured. The IC50 (μM) of the compound was calculated using Logit method.

[5] = Cytotoxicity test (SRB), A549; format: cell-based; settings: human, A549 non-small cell lung cancer cells
Method: as §1, §2

[6] = Cytotoxicity test (SRB), A431; format: cell-based; settings: human, A431 skin cancer cells
Method: as §1, §2

[7] = 80 mg/kg intragastrically each day for 20 days
[8] = 80 mg/kg intragastrically each day for 20 days, in mm³ (unit assumed)

| SMILES | Dead animal number [1, 7] | inhibition in vivo at 80 mg/kg [1, 7] [%] | d0 Wave ± SD (average bodyweight of nude mice) [1] | d21 Wave ± SD (average bodyweight of nude mice) [1, 7] | d21 Vave ± SD (average tumor volume) [1, 8] | d21 RTV ± SD (relative tumor volume) [1, 7] | inhibition at 0.2 µg/mL [2] [%] | inhibition at 1 µg/mL [2] [%] | inhibition at 5 µg/mL [2] [%] | IC50 at 72 h [3] [µM] | Cytotoxicity to tumor cells (in words) [4] | IC50 at 72 h [5] [µM] | IC50 at 72 h [6] [µM] | d21 Vave ± SD (average tumor volume) [1, 7] | States of mice / toxicity signs (in words) [1, 7] | Bodyweight of mice after administration (in words) ([1]; mouse, in vivo) |
| --- | --- | --- | --- | --- | --- | --- | --- | --- | --- | --- | --- | --- | --- | --- | --- | --- |
| CCN(CC)CCC(=O)Nc1c(C)[nH]c(/C=C2\C(=O)Nc3ccc(Br)cc32)c1C [Compound 3, N-{5-[5-bromo-2-oxo-1,2-dihydro-indol-(3Z)-ylidenemethyl]-2,4-dimethyl-1H-pyrrol-3-yl}-3-(N,N-diethylamino)propionamide] | 0/6 | 86.4 | 19.3 ± 0.41 | 17.3 ± 0.56 | 120.6 ± 40.2 | 0.98 ± 0.36 | 93 | 100 | 100 | 5.08 | certain toxicity to some cells | > 30 | > 30 | – | – | – |
| Cc1[nH]c(/C=C2\C(=O)Nc3ccc(F)cc32)c(C)c1NC(=O)CCN(C)C [Compound 6, N-{5-[5-fluoro-2-oxo-1,2-dihydro-indol-(3Z)-ylidenemethyl]-2,4-dimethyl-1H-pyrrol-3-yl}-3-(N,N-dimethylamino)propionamide] | 0/6 | 84.7 | 18.7 ± 0.38 | 20.4 ± 0.49 | 130.7 ± 37.4 | 1.10 ± 0.38 | 92 | 100 | 100 | 8.08 | certain toxicity to some cells | > 30 | > 30 | – | – | – |
| Cc1[nH]c(/C=C2\C(=O)Nc3ccc(F)cc32)c(C)c1NC(=O)CN1CCOCC1 [Compound 19, N-{5-[5-fluoro-2-oxo-1,2-dihydro-indol-(3Z)-ylidenemethyl]-2,4-dimethyl-1H-pyrrol-3-yl}-2-(morpholin-4-yl)acetamide] | – | – | – | – | – | – | 89 | 100 | 100 | > 30 | certain toxicity to some cells | > 30 | 7.6 | – | – | – |
| Cc1[nH]c(/C=C2\C(=O)Nc3ccc(F)cc32)c(C)c1NC(=O)CN(C)C [Compound 22, N-{5-[5-fluoro-2-oxo-1,2-dihydro-indol-(3Z)-ylidenemethyl]-2,4-dimethyl-1H-pyrrol-3-yl}-2-(N,N-dimethylamino)acetamide] | 0/6 | 88.1 | 19.7 ± 0.38 | 20.1 ± 0.35 | 104.6 ± 43.6 | 0.86 ± 0.54 | 90 | 100 | 100 | > 30 | – | > 30 | > 30 | – | – | – |
| CCN(CC)CC(=O)Nc1c(C)[nH]c(/C=C2\C(=O)Nc3cc(C(F)(F)F)ccc32)c1C [Compound 24, N-{5-[6-trifluoromethyl-2-oxo-1,2-dihydro-indol-(3Z)-ylidenemethyl]-2,4-dimethyl-1H-pyrrol-3-yl}-2-(N,N-diethylamino)acetamide] | 0/6 | 64.9 | 18.6 ± 0.36 | 17.9 ± 0.58 | 298.5 ± 55.8 | 2.52 ± 0.23 | 98 | 100 | 100 | 3.56 | – | > 30 | 8.89 | – | – | – |
| CCN(CC)CC(=O)Nc1c(C)[nH]c(/C=C2\C(=O)Nc3ccc([N+](=O)[O-])cc32)c1C [Compound 26, N-{5-[5-nitro-2-oxo-1,2-dihydro-indol-(3Z)-ylidenemethyl]-2,4-dimethyl-1H-pyrrol-3-yl}-2-(N,N-diethylamino)acetamide] | 0/6 | 64.8 | 19.3 ± 0.55 | 20.5 ± 0.35 | – | 2.53 ± 0.43 | 93 | 100 | 100 | 4.62 | – | > 30 | > 30 | 305.6 ± 46.7 | – | – |
| CCN(CC)CC(=O)Nc1c(C)[nH]c(/C=C2\C(=O)Nc3ccc(NC(C)=O)cc32)c1C [Compound 28, N-{5-[5-acetylamino-2-oxo-1,2-dihydro-indol-(3Z)-ylidenemethyl]-2,4-dimethyl-1H-pyrrol-3-yl}-2-(N,N-diethylamino)acetamide] | 0/6 | 77 | 18.8 ± 1.01 | 19.5 ± 0.86 | 204.3 ± 52.7 | 1.65 ± 0.62 | 90 | 100 | 100 | > 30 | – | > 30 | > 30 | – | – | – |
| CCN(CC)CCNC(=O)c1c(C)[nH]c(/C=C2\C(=O)Nc3ccc(F)cc32)c1C [Sunitinib, reference compound] | one tumor-bearing mouse died and 1/6 | 88.5 | 19.4 ± 0.44 | – | 129.6 ± 45.8 | – | 95 | 100 | 100 | 2.03 | – | 11.5 | 1.93 | – | yellowing skin and blood in excrement | decreased significantly |
